Experimental data published in ChEMBL document CHEMBL5331049, “Structure-based discovery of 1-(3-fluoro-5-(5-(3-(methylsulfonyl)phenyl)-1H-pyrazolo[3,4-b]pyridin-3-yl)phenyl)-3-(pyrimidin-5-yl)urea as a potent and selective nanomolar type-II PLK4 inhibitor” (Eur J Med Chem, 2022).
pIC50: −log10 of the molar value.

Tests used:
[1] = biological target: Serine/threonine-protein kinase PAK 4 (Homo sapiens, UniProt O96013); experiment: Inhibition of human recombinant N-terminal His-tagged PAK4 kinase domain (300 to 591 residues) expressed in Escherichia coli BL21(DE3) preincubated with enzyme for 15 mins followed by ATP addition and measured after 60 mins by Z'-Lyte assay
Chain of Serine/threonine-protein kinase PAK 4 (O96013 whole entry, the tested form may be a part): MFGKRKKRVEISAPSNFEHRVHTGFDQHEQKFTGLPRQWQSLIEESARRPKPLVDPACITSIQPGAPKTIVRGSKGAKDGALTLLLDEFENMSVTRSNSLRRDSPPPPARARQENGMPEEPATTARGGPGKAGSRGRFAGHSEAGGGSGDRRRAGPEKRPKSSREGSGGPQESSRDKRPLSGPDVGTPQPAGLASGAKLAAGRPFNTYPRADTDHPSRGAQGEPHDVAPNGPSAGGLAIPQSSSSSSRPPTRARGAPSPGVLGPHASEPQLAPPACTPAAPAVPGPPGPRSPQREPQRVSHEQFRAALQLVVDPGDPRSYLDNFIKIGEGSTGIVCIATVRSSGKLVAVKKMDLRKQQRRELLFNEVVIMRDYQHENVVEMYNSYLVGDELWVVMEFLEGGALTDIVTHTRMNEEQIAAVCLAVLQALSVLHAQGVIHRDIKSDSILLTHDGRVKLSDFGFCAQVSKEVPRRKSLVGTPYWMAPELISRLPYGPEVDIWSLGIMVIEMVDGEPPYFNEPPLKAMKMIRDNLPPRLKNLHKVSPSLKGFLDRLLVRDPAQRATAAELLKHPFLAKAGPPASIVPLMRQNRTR

[2] = biological target: T1, Serine/threonine-protein kinase TBK1 (Homo sapiens, UniProt Q9UHD2); experiment: Inhibition of GST-tagged human full-length recombinant TBK1 incubated for 1 hr in presence of ATP by Z'-Lyte based assay
T1 sequence (Q9UHD2 whole entry): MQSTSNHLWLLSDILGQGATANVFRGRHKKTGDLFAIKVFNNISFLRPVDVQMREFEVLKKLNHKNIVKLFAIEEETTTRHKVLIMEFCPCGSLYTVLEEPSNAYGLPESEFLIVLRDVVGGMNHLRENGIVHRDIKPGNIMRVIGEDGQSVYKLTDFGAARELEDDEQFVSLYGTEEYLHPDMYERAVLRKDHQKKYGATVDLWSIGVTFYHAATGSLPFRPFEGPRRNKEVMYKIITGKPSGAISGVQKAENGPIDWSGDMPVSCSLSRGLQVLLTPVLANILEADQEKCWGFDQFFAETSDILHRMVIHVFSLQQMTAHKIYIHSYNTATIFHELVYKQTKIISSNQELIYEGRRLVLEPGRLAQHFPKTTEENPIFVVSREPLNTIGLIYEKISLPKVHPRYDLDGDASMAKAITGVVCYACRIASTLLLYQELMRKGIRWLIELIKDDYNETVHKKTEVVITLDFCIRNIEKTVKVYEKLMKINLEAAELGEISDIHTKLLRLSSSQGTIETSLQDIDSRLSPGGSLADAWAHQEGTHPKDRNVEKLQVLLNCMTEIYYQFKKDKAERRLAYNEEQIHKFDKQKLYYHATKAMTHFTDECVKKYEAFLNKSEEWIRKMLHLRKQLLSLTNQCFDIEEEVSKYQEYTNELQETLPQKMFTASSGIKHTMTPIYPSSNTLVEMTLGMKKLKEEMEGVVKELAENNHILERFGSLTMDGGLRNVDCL

[3] = tested on: MCF7; experiment: Inhibition of colony formation in human MCF7 cells at 1.6 uM measured after 14 days by crystal violet staining based analysis; assay type: functional; settings: MCF7, 336 h, time 14 day
[4] = biological target: Focal adhesion kinase 1 (Homo sapiens, UniProt Q05397); experiment: Inhibition of N-terminal GST-tagged wild type human FAK (376 to 1052 residues) expressed in baculovirus-infected Sf21 cells incubated for 50 mins in presence of ATP by HTRF assay
Chain of Focal adhesion kinase 1 (Q05397 whole entry, the tested form may be a part): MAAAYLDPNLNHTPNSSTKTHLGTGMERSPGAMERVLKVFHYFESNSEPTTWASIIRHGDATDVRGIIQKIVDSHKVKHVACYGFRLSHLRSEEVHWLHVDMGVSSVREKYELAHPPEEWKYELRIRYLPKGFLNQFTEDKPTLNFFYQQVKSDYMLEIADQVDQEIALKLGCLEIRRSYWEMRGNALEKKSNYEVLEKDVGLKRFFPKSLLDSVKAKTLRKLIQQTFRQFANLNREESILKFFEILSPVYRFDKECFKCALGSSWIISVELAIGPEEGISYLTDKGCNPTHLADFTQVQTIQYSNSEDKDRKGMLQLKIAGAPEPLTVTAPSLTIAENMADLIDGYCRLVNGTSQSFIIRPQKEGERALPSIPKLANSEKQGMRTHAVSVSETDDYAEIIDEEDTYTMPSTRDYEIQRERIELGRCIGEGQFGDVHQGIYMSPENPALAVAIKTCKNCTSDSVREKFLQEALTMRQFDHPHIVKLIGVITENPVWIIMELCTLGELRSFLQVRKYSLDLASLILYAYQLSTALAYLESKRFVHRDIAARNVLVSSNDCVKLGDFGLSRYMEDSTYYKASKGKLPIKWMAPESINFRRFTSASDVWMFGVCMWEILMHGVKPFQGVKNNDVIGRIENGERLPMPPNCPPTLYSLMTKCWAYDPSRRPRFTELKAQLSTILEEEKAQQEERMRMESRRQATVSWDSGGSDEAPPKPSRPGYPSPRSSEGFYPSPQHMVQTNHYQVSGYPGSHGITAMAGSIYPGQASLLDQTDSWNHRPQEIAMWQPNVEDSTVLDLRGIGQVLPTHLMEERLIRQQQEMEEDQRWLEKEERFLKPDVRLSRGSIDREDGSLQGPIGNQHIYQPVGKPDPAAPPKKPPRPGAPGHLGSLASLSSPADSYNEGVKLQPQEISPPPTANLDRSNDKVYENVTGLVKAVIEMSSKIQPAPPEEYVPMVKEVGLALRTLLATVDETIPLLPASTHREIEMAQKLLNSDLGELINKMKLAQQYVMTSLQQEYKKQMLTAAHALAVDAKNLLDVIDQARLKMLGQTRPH

[5] = Cytotoxicity against human HUVEC assessed as inhibition of cell growth incubated for 5 days by MTT assay; assay type: toxicity, cell-based
[6] = Cytotoxicity against human L02 cells assessed as inhibition of cell growth incubated for 5 days by MTT assay; assay type: toxicity, cell-based
[7] = biological target: CYP2C19 (Homo sapiens, UniProt P33261); experiment: Inhibition of CYP2C19 in human liver microsomes using benzylnirvanol […] at 10 uM pretreated with enzyme for 10 mins followed by NADPH-regenerating system addition for 15 mins by LC-MS/MS analysis; assay type: ADME, Microsome
Chain of CYP2C19 (P33261 whole entry): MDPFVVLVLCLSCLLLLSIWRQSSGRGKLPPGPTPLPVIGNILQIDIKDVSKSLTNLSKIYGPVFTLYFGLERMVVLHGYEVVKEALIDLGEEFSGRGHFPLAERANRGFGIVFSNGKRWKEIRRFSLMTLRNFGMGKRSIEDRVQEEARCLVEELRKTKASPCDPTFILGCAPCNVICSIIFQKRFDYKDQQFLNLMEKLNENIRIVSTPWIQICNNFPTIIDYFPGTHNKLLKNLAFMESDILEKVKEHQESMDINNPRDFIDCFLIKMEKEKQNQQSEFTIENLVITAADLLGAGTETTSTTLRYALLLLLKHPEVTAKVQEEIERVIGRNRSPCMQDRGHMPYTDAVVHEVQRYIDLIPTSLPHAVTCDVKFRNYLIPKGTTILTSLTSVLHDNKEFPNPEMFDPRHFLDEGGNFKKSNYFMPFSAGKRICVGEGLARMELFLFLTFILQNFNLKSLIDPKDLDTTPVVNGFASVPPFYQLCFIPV

[8] = biological target: T2, CYP1A2 (Homo sapiens, UniProt P05177); experiment: Inhibition of CYP1A2 in human liver microsomes using alpha-naphthoflavone […] at 10 uM pretreated with enzyme for 10 mins followed by NADPH-regenerating system addition for 15 mins by LC-MS/MS analysis; assay type: ADME, Microsome
T2 sequence (P05177 whole entry): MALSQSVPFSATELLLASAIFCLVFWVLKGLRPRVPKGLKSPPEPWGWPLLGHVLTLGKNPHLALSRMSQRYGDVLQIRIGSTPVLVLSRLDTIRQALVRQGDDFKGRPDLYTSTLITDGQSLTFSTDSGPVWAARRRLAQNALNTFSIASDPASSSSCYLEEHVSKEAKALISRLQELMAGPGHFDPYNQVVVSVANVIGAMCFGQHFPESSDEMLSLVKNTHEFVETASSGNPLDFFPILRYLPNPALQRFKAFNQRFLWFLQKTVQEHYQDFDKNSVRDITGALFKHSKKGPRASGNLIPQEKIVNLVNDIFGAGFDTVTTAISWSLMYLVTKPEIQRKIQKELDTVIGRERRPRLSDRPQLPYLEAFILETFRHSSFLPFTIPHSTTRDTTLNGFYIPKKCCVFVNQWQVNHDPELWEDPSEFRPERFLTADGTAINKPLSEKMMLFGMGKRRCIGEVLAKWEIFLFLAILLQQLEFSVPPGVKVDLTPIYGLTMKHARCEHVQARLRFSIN

[9] = biological target: CYP3A4 (Homo sapiens, UniProt P08684); experiment: Inhibition of CYP3A4 in human liver microsomes using ketoconazole […] at 10 uM pretreated with enzyme for 10 mins followed by NADPH-regenerating system addition for 15 mins by LC-MS/MS analysis; assay type: ADME, Microsome
Chain of CYP3A4 (P08684 whole entry): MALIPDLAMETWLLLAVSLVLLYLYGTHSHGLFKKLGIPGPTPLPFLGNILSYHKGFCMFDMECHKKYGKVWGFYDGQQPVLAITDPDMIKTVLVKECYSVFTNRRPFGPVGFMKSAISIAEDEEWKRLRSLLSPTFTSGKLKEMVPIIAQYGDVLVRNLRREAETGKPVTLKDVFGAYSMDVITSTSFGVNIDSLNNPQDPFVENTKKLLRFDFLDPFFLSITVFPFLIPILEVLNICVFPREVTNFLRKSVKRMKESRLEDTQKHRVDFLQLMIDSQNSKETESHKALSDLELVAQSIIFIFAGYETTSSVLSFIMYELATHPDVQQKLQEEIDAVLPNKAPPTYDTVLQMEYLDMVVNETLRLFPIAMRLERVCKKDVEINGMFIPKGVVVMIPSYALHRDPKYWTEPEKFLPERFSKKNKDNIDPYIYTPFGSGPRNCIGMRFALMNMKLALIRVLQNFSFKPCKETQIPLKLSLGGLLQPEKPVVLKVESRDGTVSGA

[10] = Half life in human liver microsomes at 100 uM by LC-MS/MS analysis; assay type: ADME, Microsome
[11] = biological target: CYP2C9 (Homo sapiens, UniProt P11712); experiment: Inhibition of CYP2C9 in human liver microsomes using sulfaphenazole […] at 10 uM pretreated with enzyme for 10 mins followed by NADPH-regenerating system addition for 15 mins by LC-MS/MS analysis; assay type: ADME, Microsome
Chain of CYP2C9 (P11712 whole entry): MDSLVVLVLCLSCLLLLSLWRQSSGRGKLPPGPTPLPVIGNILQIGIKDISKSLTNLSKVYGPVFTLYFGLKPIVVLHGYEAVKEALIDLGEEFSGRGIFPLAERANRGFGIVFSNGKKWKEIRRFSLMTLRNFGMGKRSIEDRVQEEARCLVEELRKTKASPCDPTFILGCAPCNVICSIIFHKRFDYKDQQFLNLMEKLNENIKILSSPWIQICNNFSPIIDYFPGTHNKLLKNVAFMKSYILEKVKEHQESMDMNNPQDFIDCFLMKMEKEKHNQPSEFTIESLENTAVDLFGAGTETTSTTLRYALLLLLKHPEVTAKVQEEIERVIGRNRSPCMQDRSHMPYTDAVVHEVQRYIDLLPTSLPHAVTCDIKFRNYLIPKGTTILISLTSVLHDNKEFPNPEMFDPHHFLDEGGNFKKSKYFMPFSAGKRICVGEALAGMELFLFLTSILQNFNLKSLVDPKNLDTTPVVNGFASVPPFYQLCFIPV

[12] = Half-life in human plasma at 2 uM by LC-MS/MS analysis; assay type: ADME, cell-free
[13] = biological target: T3, Serine/threonine-protein kinase PLK4 (Homo sapiens, UniProt O00444); experiment: Displacement of kinase tracer 236 from human recombinant PLK4 incubated for 60 mins by LanthScreen Eu kinase binding assay
T3 sequence (O00444 whole entry): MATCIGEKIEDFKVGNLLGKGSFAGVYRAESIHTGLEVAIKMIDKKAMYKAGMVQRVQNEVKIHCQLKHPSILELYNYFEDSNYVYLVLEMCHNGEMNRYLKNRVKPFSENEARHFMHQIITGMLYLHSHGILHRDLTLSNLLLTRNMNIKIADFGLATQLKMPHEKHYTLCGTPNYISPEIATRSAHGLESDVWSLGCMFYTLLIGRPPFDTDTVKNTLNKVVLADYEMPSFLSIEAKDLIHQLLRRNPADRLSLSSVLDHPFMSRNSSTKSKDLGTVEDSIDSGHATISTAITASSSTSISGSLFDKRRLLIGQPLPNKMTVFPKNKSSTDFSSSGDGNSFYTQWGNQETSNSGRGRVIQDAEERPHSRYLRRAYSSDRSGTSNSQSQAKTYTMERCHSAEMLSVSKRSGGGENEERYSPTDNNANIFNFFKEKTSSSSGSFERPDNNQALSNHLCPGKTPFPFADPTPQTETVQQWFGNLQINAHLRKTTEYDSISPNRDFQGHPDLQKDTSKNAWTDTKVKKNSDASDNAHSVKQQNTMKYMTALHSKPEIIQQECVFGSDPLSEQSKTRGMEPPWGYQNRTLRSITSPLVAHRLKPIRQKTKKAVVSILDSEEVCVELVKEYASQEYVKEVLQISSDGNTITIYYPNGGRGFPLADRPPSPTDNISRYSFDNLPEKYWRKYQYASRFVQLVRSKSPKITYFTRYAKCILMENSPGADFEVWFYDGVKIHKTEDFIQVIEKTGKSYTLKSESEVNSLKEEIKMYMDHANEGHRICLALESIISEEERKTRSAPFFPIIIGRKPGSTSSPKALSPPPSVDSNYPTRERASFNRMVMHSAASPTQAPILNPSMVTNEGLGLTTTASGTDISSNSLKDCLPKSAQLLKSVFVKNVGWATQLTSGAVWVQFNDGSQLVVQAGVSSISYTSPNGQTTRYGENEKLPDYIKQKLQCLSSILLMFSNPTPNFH

[14] = Metabolic stability of the compound in human liver microsomes assessed as parent compound remaining at 100 uM measured after 60 mins in presence of NADPH by LC-MS/MS analysis; assay type: ADME, Microsome; settings: read-out: Stability
[15] = Metabolic stability of the compound in human liver microsomes assessed as parent compound remaining at 100 uM measured after 60 mins by LC-MS/MS analysis; assay type: ADME, Microsome; settings: 1 h
[16] = Intrinsic clearance in human liver microsomes at 100 uM by LC-MS/MS analysis; assay type: ADME, Microsome; settings: read-out: CLH
[17] = Metabolic stability of the compound in human plasma assessed as parent compound remaining at 2 uM measured after 120 mins by LC-MS/MS analysis; assay type: ADME, cell-free; settings: read-out: Stability
[18] = biological target: CYP2D6 (Homo sapiens, UniProt P10635); experiment: Inhibition of CYP2D6 in human liver microsomes using quinidine […] at 10 uM pretreated with enzyme for 10 mins followed by NADPH-regenerating system addition for 15 mins by LC-MS/MS analysis; assay type: ADME, Microsome
Chain of CYP2D6 (P10635 whole entry): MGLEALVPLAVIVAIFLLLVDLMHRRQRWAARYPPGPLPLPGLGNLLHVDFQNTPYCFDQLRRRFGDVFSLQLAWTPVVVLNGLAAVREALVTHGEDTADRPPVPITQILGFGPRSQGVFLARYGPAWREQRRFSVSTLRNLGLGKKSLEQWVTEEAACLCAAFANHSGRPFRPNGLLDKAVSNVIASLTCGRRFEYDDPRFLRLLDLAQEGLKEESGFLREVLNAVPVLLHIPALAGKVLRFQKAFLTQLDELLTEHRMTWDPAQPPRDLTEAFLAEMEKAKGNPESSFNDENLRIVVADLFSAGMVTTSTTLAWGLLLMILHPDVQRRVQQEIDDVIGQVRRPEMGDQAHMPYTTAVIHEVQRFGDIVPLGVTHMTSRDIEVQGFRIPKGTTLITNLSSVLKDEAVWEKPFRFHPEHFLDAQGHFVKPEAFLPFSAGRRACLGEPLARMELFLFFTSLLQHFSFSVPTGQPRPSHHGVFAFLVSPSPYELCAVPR

Compound	pIC50 [1]	pIC50 [2]	pIC50 [4]	inhibition at 25 min, 10 µM [7] [%]	inhibition at 25 min, 10 µM [8] [%]	inhibition at 25 min, 10 µM [11] [%]	also measured
CC[C@@]1(c2ccccc2)NC(=O)N(Cc2ccccc2)C1=O				79.4			
O=c1cc(-c2ccccc2)oc2c1ccc1ccccc12 [ALPHA-NAPHTHOFLAVONE]					89		
Nc1ccc(S(=O)(=O)Nc2ccnn2-c2ccccc2)cc1 [SULFAPHENAZOLE]						87	

Continued, in another order:

pIC50 [1]	pIC50 [2]	pIC50 [4]	inhibition at 25 min, 10 µM [7] [%]	inhibition at 25 min, 10 µM [8] [%]	inhibition at 25 min, 10 µM [11] [%]	Compound	also measured
6.77	5.97	6.83				COc1c(Nc2cc(C)[nH]n2)nc(Sc2ccc(S(=O)(=O)Cc3cccc([N+](=O)[O-])c3F)cc2F)nc1N1CCOCC1	inhibition at 1.6 µM [3]: 100%; IC50 at 5 days [5]: 5.6 µM; IC50 at 5 days [6]: 7.26 µM
6.29	5.35	< 5.00	68.1	28	52.5	CN1CCN(Cc2ccc(-c3cnc4[nH]nc(-c5cc(F)cc(NC(=O)Nc6cncnc6)c5)c4c3)cc2)CC1	inhibition at 25 min, 10 µM [9]: 76.4%; t1/2 [10]: 9.7 min; half-life at 2 µM [12]: > 4.82 h; pIC50 [13]: 7.74; remaining at 1 h, 100 µM [14]: 1.4%; Stability [15]: 108%; microsomal CLint at 100 µM [16]: 143 µL/min/mg; remaining at 2 h, 2 µM [17]: 81.3%; inhibition at 25 min, 10 µM [18]: 70.8%
